{"source": "patent US12396996B2", "about": "“Compounds, pharmaceutical compositions, and methods of their use in reversing cancer chemoresistance” (priority 2019, dated 2025)", "test_system": "786-0 and HMLE-Snail (E-Snail) cells versus WT7, HMLE, HK-2, NP-1 and BEAS-2B cells", "assay": "Proliferation assay on normal and cancer cell lines", "type": "cell-based, human", "conditions": "100 nM chaetocin for 1 day", "text": "Mesenchymal, TIC-rich, chemotherapy-resistant cell lines used in this experiment are the clear cell renal carcinoma cell line 786-0 and the human mammary epithelial (HMLE) cell line in which the zinc finger protein SNAI1 (SNAIL) is overexpressed, E-SNAIL. The isogenic epithelial, TIC-depleted, chemotherapy sensitive cell lines used as controls are the clear cell renal carcinoma cell line WT7 (modified 786-0 cells) and the human mammary epithelial (HMLE) cell with […].\nTo test if other mesenchymal, TIC-rich, chemotherapy resistant cell lines of different tissue origin (e.g. kidney) are also sensitive to chaetocin treatment, normal and cancerous breast (control) and renal cells were treated in culture with 100 nM chaetocin for 1 day, after which cell growth was assayed using a proliferation assay (FIG. 1C). The tested cells included a 786-0 clear cell renal cell carcinoma (ccRCC) cell line, which is defective in the Von Hippel-Lindau tumor suppressor (VHL), enriched in TIC, and difficult to eliminate by conventional chemotherapy in patients carrying this mutation. WT7 cell line is a modified 786-0 cell line in which VHL is re-introduced artificially, rendering them epithelial, TIC-depleted and susceptible to chemotherapy. […]", "data": [{"smiles": "CN1C(=O)[C@@]23C[C@]4([C@]56C[C@@]78SS[C@](CO)(C(=O)N7[C@H]5Nc5ccccc56)N(C)C8=O)c5ccccc5N[C@@H]4N2C(=O)[C@@]1(CO)SS3", "note": "[chaetocin]", "values": [{"measurement": "inhibition of proliferation", "value": "selectively inhibits the growth of mesenchymal, TIC-rich, chemotherapy resistant breast and kidney cancer cell lines"}]}]}
